Reference: ChEMBL document CHEMBL1154937, “Radiosynthesis of novel carbon-11-labeled triaryl ligands for cannabinoid-type 2 receptor” (Bioorg Med Chem Lett, 2010)

Columns and labels:
Brain [1] = assay: Drug uptake in […] brain at 8 MBq/200 mL, iv after 5 mins; type: ADME, organism-based; conditions: in vivo
Cannabinoid receptor 2 [2] = biological target: T1, Cannabinoid receptor 2 (Rattus norvegicus, UniProt Q9QZN9); assay: Binding affinity to rat brain CB2 receptor
T1 sequence (Q9QZN9 whole entry): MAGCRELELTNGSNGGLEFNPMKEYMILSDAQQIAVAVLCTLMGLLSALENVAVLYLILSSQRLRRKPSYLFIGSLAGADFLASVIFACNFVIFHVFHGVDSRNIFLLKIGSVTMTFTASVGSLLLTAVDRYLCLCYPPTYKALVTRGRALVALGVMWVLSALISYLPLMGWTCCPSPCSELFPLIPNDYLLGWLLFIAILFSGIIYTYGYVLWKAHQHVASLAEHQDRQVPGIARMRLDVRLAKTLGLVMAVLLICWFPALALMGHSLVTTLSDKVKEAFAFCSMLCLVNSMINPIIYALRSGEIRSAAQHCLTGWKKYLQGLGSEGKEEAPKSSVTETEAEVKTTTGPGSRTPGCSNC

Brain [3] = assay: Drug uptake in […] brain at 8 MBq/200 mL, iv after 15 mins; type: ADME, organism-based; conditions: in vivo, 0.25 h
Brain [4] = assay: Drug uptake in […] brain at 8 MBq/200 mL, iv after 30 mins; type: ADME, organism-based; conditions: in vivo, 0.5 h
Brain [5] = assay: Drug uptake in […] brain at 8 MBq/200 mL, iv after 1 min; type: ADME, organism-based; conditions: in vivo
Blood [6] = assay: Drug uptake in […] blood at 8 MBq/200 mL, iv after 60 mins; type: ADME, organism-based; conditions: in vivo, 1 h
Blood [7] = assay: Drug uptake in […] blood at 8 MBq/200 mL, iv after 30 mins; type: ADME, organism-based; conditions: in vivo, 0.5 h
Blood [8] = assay: Drug uptake in […] blood at 8 MBq/200 mL, iv after 15 mins; type: ADME, organism-based; conditions: in vivo, 0.25 h
Blood [9] = assay: Drug uptake in […] blood at 8 MBq/200 mL, iv after 1 min; type: ADME, organism-based; conditions: in vivo
Brain [10] = assay: Drug uptake in […] brain at 8 MBq/200 mL, iv after 60 mins; type: ADME, organism-based; conditions: in vivo, 1 h
Blood [11] = assay: Drug uptake in […] blood at 8 MBq/200 mL, iv after 5 mins; type: ADME, organism-based; conditions: in vivo
Cannabinoid receptor 1 = Cannabinoid receptor 1 (Homo sapiens, UniProt P21554); assay: Binding affinity to CB1 receptor
Cannabinoid receptor 2 [12] = biological target: Cannabinoid receptor 2 (Homo sapiens, UniProt P34972); assay: Binding affinity to human CB2 receptor
Sequence of Cannabinoid receptor 2 (Homo sapiens, UniProt P34972) (P34972 whole entry): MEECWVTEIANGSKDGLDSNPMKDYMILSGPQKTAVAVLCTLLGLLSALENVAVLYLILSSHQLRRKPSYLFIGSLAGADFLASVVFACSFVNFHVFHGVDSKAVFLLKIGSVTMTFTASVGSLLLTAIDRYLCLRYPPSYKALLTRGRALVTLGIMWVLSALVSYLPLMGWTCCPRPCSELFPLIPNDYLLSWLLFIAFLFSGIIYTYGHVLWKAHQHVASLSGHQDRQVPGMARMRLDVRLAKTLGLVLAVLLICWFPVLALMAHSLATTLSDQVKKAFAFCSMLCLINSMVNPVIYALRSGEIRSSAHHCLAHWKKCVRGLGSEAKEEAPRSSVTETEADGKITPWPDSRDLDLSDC

Sequence of Cannabinoid receptor 1 (P21554 whole entry): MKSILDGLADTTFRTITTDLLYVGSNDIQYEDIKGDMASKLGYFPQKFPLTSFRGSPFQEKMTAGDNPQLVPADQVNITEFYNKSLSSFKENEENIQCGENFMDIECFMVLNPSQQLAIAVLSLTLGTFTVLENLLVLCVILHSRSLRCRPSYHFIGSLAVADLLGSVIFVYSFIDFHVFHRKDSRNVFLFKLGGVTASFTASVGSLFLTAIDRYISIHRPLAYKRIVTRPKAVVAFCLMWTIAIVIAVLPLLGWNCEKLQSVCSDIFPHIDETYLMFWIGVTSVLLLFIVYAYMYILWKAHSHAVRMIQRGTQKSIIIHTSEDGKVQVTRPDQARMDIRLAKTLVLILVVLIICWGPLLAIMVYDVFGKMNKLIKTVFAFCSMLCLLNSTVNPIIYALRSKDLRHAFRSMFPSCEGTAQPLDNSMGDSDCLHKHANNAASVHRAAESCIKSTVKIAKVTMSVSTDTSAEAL

| Drug uptake (Brain [1]) | Drug uptake (Brain [3]) | Drug uptake (Brain [4]) | Drug uptake (Brain [5]) | Drug uptake (Blood [6]) | Drug uptake (Blood [7]) | Drug uptake (Blood [8]) | Drug uptake (Blood [9]) | Drug uptake (Brain [10]) | Drug uptake (Blood [11]) | Ki (Cannabinoid receptor 1) | Structure (SMILES) | Ki (Cannabinoid receptor 2 [2]) | Ki (Cannabinoid receptor 2 [12]) |
| --- | --- | --- | --- | --- | --- | --- | --- | --- | --- | --- | --- | --- | --- |
| 1.87% | 1.5% | 1.09% | 1.93% | 2.27% | 2.38% | 2.25% | 3.9% | 0.65% | 2.12% |  | COc1cc(C(O)c2cccs2)cc(O[11CH3])c1-c1cc(Cl)cc(Cl)c1 (stereo unspecified) | 0.27 nM |  |
|  |  |  |  |  |  |  |  |  |  | > 1000 nM | COc1cc(C(O)c2cccs2)cc(OC)c1-c1cc(Cl)cc(Cl)c1 (stereo unspecified) |  |  |
| 2.07% | 1.77% | 0.96% | 1.94% | 0.37% | 0.35% | 0.7% | 2.2% | 0.45% | 1.18% |  | [11CH3]Oc1cc(C(O)c2cccs2)cc(O)c1-c1cc(Cl)cc(Cl)c1 (stereo unspecified) |  |  |
| 1.29% | 1.1% | 0.85% | 1.2% | 3.38% | 3.42% | 3.45% | 2.71% | 0.62% | 2.93% |  | COc1cc(C(=O)c2cccs2)cc(O[11CH3])c1-c1cc(Cl)cc(Cl)c1 |  |  |
|  |  |  |  |  |  |  |  |  |  |  | CCCCOc1c(O[11CH3])ccc2cc(C(=O)NC3CCCCC3)c(=O)[nH]c12 |  | 9.6 nM |
|  |  |  |  |  |  |  |  |  |  |  | CCCCOc1c(OCC[18F])ccc2cc(C(=O)NC3CCCCC3)c(=O)[nH]c12 |  | 35.8 nM |
|  |  |  |  |  |  |  |  |  |  |  | COc1ccc(S(=O)(=O)c2ccc(C(C)NS(C)(=O)=O)cc2)c(S(=O)(=O)c2ccc(O[11CH3])cc2)c1 (stereo unspecified) |  | 4.5 nM |

| Structure (SMILES) | Drug uptake (Brain [1]) | Drug uptake (Brain [3]) | Drug uptake (Brain [4]) | Drug uptake (Brain [5]) | Drug uptake (Blood [6]) | Drug uptake (Blood [7]) | Drug uptake (Blood [8]) | Drug uptake (Blood [9]) | Drug uptake (Brain [10]) | Drug uptake (Blood [11]) | Ki (Cannabinoid receptor 1) | Ki (Cannabinoid receptor 2 [2]) | Ki (Cannabinoid receptor 2 [12]) |
| --- | --- | --- | --- | --- | --- | --- | --- | --- | --- | --- | --- | --- | --- |
| [11CH3]Oc1cc(C(=O)c2cccs2)cc(O)c1-c1cc(Cl)cc(Cl)c1 | 1.63% | 1.01% | 0.56% | 1.54% | 0.21% | 0.36% | 0.63% | 1.56% | 0.18% | 1% |  | 2.32 nM |  |
